Assay results from PMC3632407 (Chemical communications (Cambridge, England), 2013).
Read-outs that look alike come from different tables or passages of the source. Where a SMILES comes first, the peptide text is derived from it.

Key:
Assay type in all cases: cell-based
E.coli = system: E.coli
S. nterica = test: Minimal inhibitory concentration for bacteriocidal activity; settings: MIC; strains in Supp. Info
MRSA = system: MRSA
P. aeruginosa = system: P. aeruginosa
K. pneumoniae = system: K. pneumoniae
E. faecium = system: E. faecium
A. baumanii = system: A. baumanii

Row | SMILES | Minimal inhibitory concentration for bacteriocidal activity, E.coli (E.coli) [µM] | Minimal inhibitory concentration for bacteriocidal activity, S. nterica (S. nterica) [µM] | Minimal inhibitory concentration for bacteriocidal activity, MRSA (MRSA) [µM] | Minimal inhibitory concentration for bacteriocidal activity, P. aeruginosa (P. aeruginosa) [µM] | Minimal inhibitory concentration for bacteriocidal activity, K. pneumoniae (K. pneumoniae) [µM] | Minimal inhibitory concentration for bacteriocidal activity, E. faecium (E. faecium) [µM] | Minimal inhibitory concentration for bacteriocidal activity, A. baumanii (A. baumanii) [µM] | Minimal inhibitory concentration for bacteriocidal activity, E.coli (E.coli; MIC, strains in Supp. Info) [µM] | Minimal inhibitory concentration for bacteriocidal activity, MRSA (MRSA; MIC, strains in Supp. Info) [µM] | Minimal inhibitory concentration for bacteriocidal activity, P. aeruginosa (P. aeruginosa; MIC, strains in Supp. Info) [µM] | Minimal inhibitory concentration for bacteriocidal activity, K. pneumoniae (K. pneumoniae; MIC, strains in Supp. Info) [µM] | Minimal inhibitory concentration for bacteriocidal activity, E. faecium (E. faecium; MIC, strains in Supp. Info) [µM] | Minimal inhibitory concentration for bacteriocidal activity, A. baumanii (A. baumanii; MIC, strains in Supp. Info) [µM]
1 | N=C(N)NCCC[C@H](NC(=O)[C@H](CS)NC(=O)[C@H](Cc1ccc(O)cc1)NC(=O)[C@H](Cc1c[nH]c2ccccc12)NC(=O)[C@H](CCCNC(=N)N)NC(=O)[C@@H](N)Cc1c[nH]c2ccccc12)C(N)=O [Complex 1, WRWYCR-NH2] (H-WRWYCR-NH2) | 17 | 8 | 66 | 33 | 66 | 8 | 132 | – | – | – | – | – | –
2 | NC[C@H]1O[C@H](O[C@H]2[C@H](O)[C@@H](O[C@H]3O[C@H](CO)[C@@H](O)[C@H](N)[C@H]3O)[C@H](N)C[C@@H]2N)[C@H](O)[C@@H](O)[C@@H]1O [kanamycin] | – | 1 | – | – | – | – | – | 8 | 264 | 33 | 66 | >264 | >264
